From patent US20170057948A1, “INDOLE-LIKE TRK RECEPTOR ANTAGONISTS” (Tallinn University of Technology, priority 2015, published 2017)
In brackets after ≈: the same amount, converted by molar mass.

Assays:
TrkA [1] = biological target: T1, TrkA (Homo sapiens, UniProt P04629); assay: In vitro kinase profiling (48 kinases), TrkA; assay type: biochemical; conditions: 1 μM concentration; read-out: residual activity of TrkA
T1 construct: purchased ProQinase, Germany (custom-ordered assay service)
Experimental: According to the results, at concentration of 100 nM all compounds were relatively TrkA specific inhibiting only up to 3 off-target kinases, while reducing the activity of TrkA by at least 82% at 100 nM concentration and 94% at 1 μM concentration. At 100 nM, 2a25 was able to inhibit only TrkA. […] Kinases that were inhibited by most of the compounds at 1 concentration included Aurora-B, CAMKK2, CHK2, IRAK4, LCK, and MAP3K11.
(§1) The biochemical kinase assays were custom ordered from ProQinase, Germany.

TrkA [2] = biological target: T1, TrkA; conditions: 1 μM concentration; cited from earlier work
[3] = tested on: cortical neurons, PC-12 cells or dividing MG87/TRKB/luc/Elk1 cells; assay: Toxic or adverse effect on cells (summary statement); assay type: cell-based
From the text: The Trk antagonists of the invention share a similar indole-like basic structure; however, substituent substitution yielded compounds with markedly high activity and specificity for the Trk family.

Syk [4] = biological target: T2, Syk (Homo sapiens, UniProt P43405); conditions: cited from earlier work
TrkA [5] = biological target: T3, TrkA (Rattus norvegicus, UniProt P35739); assay: PC-12/luc/Elk1 luciferase reporter cellular assay (NGF-induced); assay type: cell-based; conditions: 50 ng/ml NGF, 18 h treatment
T3 construct: endogenous in cells; host or cells: PC-12 and PC-12/luc/Elk1 (rat pheochromocytoma)
T3 sequence (P35739 33-799): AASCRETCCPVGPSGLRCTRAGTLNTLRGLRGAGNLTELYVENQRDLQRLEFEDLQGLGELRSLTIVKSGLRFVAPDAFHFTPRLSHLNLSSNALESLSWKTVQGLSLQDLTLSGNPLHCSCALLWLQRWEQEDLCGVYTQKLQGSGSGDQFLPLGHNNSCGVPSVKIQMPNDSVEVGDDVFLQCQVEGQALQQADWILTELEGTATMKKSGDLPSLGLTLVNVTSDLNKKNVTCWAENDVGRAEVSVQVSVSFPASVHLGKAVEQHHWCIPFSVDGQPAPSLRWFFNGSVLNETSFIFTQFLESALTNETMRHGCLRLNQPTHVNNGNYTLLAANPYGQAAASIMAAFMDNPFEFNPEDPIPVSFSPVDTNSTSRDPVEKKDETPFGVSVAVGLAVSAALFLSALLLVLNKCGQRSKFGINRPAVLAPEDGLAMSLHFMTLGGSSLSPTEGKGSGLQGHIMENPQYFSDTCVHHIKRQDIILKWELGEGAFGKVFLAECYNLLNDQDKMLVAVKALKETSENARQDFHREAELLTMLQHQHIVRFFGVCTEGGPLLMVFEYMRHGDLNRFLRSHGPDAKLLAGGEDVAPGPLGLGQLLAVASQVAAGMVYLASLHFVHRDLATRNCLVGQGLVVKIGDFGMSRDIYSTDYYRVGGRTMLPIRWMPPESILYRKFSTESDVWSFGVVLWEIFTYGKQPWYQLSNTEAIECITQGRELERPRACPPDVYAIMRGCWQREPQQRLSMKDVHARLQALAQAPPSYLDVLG
From the text: A stably transfected cell line was generated in order to assess the capability of the compounds to inhibit the activation of TrkA receptor in the natural (neural) cellular context. Once the endogenic TrkA of the PC-12/luc/Elk1 cell line becomes activated, the downstream events result in phosphorylation of Elk1, the GAL4-dbd fused to Elk1 binds then to GAL4 UAS and activates the transcription of luciferase (FIG. 3). To address the suitability of the generated system for screening application, the Z′-factor was determined (see also Examples section). […] Z′-factor value above 0.5 is considered an indication of a high quality assay. The timeframe of 18 hours with the highest Z′-factor value was chosen for subsequent experiments.
PC-12 (rat adrenal pheochromocytoma cell line) cells were transfected using LIPOD293 DNA In Vitro Transfection Reagent (SignaGen) with 1 μg of pFA2-Elk1 plasmid and 4 μg of pFR-LUC plasmid (PathDetect Elk1 trans-Reporting System; Agilent Technologies). pFA2-Elk1 plasmid codes for the fusion protein consisting of GAL4-dbd (DNA-binding domain) followed by Elk1 transcription factor and contains Geneticin G418 resistance gene neomycin. pFR-LUC plasmid codes for GAL4 upstream activation sequence (UAS) followed by luciferase reporter gene. A puromycin resistance gene was introduced to the pFR-LUC plasmid using Bst1107I and NdeI restrictases from pGL4.22[luc2CP/Puro] (Promega). The selection of transfected cells was initiated two days after the transfection with addition of 300 μg/ml of G418 (Sigma) and 0.75 μg/ml of puromycin (Sigma-Aldrich) and continued for about one and a half months until distinct cell colonies could be picked, plated, and tested for responsiveness to NGF. Generated cell line, called hereafter PC-12/luc/Elk1, was maintained in Dulbecco's Modified Eagle's Medium (DMEM; PAA) containing 6% fetal bovine serum (FBS; PAA), 6% horse serum (HS; PAA), 1% penicillin/streptomycin (PS; Gibco), 300 μg/ml of Geneticin G418, and 0.75 μg/ml of puromycin. […] PC-12 cells were maintained in DMEM containing 6% FBS, 6% HS, and 1% PS.
PC-12/luc/Elk1 cells were plated one day before the assay on 96 well plates in 25,000 cells per well. […] The plate was subjected to 10 minutes of shaking and, thereafter, analyzed using TECAN plate reader. […]
The IC50's of the compounds were determined using cellular and biochemical assays. In the cellular assays, using PC-12/luc/Elk1 and MG87/TrkB/luc/Elk1 cells, the compounds were assessed in gradual dilutions of the compounds in triplets together with NGF or BDNF (Peprotech), respectively. TrkA inhibition was determined using same methodology as for measuring the Z′-factor with 18 h treatment time. […]

Syk [6] = biological target: T2, Syk; conditions: 1 μM concentration; cited from earlier work
Syk [7] = biological target: T2, Syk; assay: In vitro kinase profiling (48 kinases), Syk; assay type: biochemical; parameters: Aurora-B, CaMMK2, Chk2, Irak4, Lck, Map3K11, Syn aa1-635, TrkA, TrkB, and TrkC; purchased ProQinase, Germany (custom-ordered assay service); conditions: for inhibition of Syk: own experiments
From the text: as §1

TrkB = biological target: T4, TrkB (Rattus norvegicus, UniProt Q63604); assay: Western blot of phosphorylated TrkB in MG87/TrkB/luc/Elk1 cells; assay type: cell-based; conditions: concurrently with BDNF, statistically significant reduction at 1 μM
T4 construct: expressed in transfected cells; host or cells: MG87/TrkB/luc/Elk1
T4 sequence (Q63604 32-821): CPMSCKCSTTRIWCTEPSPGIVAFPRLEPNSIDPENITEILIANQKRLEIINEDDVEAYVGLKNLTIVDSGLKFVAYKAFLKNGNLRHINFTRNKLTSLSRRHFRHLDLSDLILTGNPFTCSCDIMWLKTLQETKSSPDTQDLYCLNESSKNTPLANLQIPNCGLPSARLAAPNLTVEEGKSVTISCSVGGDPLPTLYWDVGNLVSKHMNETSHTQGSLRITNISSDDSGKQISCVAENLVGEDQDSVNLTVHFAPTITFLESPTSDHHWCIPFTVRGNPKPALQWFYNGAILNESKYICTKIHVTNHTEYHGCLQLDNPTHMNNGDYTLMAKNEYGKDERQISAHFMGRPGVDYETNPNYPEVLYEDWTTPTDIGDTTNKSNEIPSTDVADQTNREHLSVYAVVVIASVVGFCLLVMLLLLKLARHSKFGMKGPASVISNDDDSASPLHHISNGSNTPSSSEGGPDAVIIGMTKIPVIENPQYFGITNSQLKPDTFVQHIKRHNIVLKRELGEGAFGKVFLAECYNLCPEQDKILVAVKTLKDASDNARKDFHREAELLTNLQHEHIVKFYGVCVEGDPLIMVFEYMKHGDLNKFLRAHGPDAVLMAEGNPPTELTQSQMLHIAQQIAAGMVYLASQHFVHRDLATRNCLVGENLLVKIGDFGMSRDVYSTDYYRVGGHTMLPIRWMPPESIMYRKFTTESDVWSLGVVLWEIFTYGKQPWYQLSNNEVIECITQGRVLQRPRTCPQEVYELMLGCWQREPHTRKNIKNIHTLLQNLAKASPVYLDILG
Experimental: (§2) The compounds were tested on PC-12 and MG87/TrkB/luc/Elk1 cells that express TrkA and TrkB, respectively. The cells were treated concurrently with NGF or BDNF and the compounds at three different concentrations. The levels of phosphorylated kinases were assessed using respective antibodies and further quantification of western blot signals. […] Additionally, in these two distinct cellular systems the activity of the Trk proteins may be incomparable due to their different concentration or interaction partners that can affect their behavior. For this reason, most probably there is no big selectivity of these compounds for the Trk kinases which is expected, as the ATP-binding pockets of Trk proteins are highly similar.
(§3) The PC-12 and MG87/TrkB/luc/Elk1 cells were plated on 6-well plates one day prior to the assay. Cells were treated for 10 minutes with compounds and simultaneously with 50 ng/ml of NGF (PC-12 cells) or BDNF (MG87/TrkB/luc/Elk1 cells). 0.1% of DMSO was used to determine the base level, 0.1% of DMSO concurrently with 50 ng/ml of NGF or BDNF served as a negative control and 0.1% of DMSO concurrently with 5 nM of AZ-23 as a positive control. Thereafter, western blotting was performed as described previously. Antibodies used included: rabbit anti-TrkA (#06-574; 1:1000) from Millipore; rabbit anti phospho-TrkA (#9141; 1:1000), rabbit anti phospho-TrkA/TrkB (#4619; 1:1000), rabbit anti-TrkB (#4603; 1:1000) and rabbit anti phospho-Akt (#4058; 1:3000) from Cell Signaling; mouse anti phosphor-Erk1/2 (#sc-7383; 1:1000) from Santa Cruz and anti-tubulinβ clone E7 (1:1000) from Prof. Michael Klymkovsky.

TrkA [8] = biological target: T3, TrkA; assay: Western blot of phosphorylated TrkA in PC-12 cells; assay type: cell-based; conditions: concurrently with NGF, statistically significant reduction at 1 μM
Experimental: as §2, §3

Akt and Erk1/2 = assay: Western blot of phosphorylated downstream kinases; assay type: cell-based; conditions: compared to NGF or BDNF alone
Experimental: as §2, §3

[9] = biological target: 48 kinases representing the human kinome; assay: In vitro kinase profiling, panel of 48 kinases (off-targets); assay type: biochemical; conditions: 100 nM
From the text: as §1

MG87/TrkB/luc/Elk1 cells = assay: Cellular ATP content, CellTiter-Glo viability assay; assay type: cell-based; conditions: different concentrations, 24 h
Experimental: ATP was measured at least from 8 different wells per treatment condition.

In vivo toxicology study = conditions: C57/B16 mice
Rat cortical cells = assay: Viability of primary cortical neurons (neuron count); assay type: cell-based; conditions: 24 h, even at 1 μM concentration
Experimental: Neurons were grown in NEUROBASAL, a medium supplemented with B27 with phenol red on ploy-L-lysine-coated 35 mm glass bottomed dishes. Culture media and supplements were obtained from Invitrogen (Carlsbad, Calif.). For viability measurements neurons were first transfected with neuronal maker, pAAV-hSyn-DsRedExpress obtained from Addgene (Cambridge, Mass.) allowing better to assess the morphology of individual neurons. Briefly, the condition medium was replaced with 100 μL Opti-MEM 1 medium, containing 2% Lipofectamine 2000 and 1-2 μg of total DNA. Neurons were incubated for 3-4 hrs, after which fresh medium was added.

Aqueous solubility = assay type: physicochemical; conditions: room temperature

T1 sequence (P04629 33-796): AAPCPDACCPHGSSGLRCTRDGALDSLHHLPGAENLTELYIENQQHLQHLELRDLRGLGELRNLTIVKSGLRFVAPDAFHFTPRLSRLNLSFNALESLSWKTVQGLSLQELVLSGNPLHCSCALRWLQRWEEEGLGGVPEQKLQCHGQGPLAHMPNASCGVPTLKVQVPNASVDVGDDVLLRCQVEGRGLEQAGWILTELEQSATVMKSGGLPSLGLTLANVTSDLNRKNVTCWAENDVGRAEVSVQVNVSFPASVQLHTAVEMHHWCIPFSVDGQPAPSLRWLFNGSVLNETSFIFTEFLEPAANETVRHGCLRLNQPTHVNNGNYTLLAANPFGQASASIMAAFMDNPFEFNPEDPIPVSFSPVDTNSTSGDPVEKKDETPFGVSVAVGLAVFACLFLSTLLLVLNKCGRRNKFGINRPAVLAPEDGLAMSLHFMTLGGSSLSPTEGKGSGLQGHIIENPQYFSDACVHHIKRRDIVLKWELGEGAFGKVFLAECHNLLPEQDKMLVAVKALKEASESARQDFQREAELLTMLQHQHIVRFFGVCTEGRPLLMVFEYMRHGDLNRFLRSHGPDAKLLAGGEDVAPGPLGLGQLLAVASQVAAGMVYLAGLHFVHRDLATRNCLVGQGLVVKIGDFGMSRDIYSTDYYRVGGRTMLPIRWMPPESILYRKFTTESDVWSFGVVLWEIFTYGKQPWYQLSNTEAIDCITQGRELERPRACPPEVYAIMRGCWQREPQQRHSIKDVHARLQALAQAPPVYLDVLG

In the case of Cn1cc(/C=C2\C(=O)Nc3ccc(S(N)(=O)=O)cc32)c2ccccc21 [Compound 2a21], the remaining activity at 1 µM (TrkA [1]) is listed as 2%, the “residual activity of TrkA (Gao et al.)” value (TrkA [2]) is listed as 1% and the “toxic or adverse effect on cells” value [3] is listed as “no toxic or adverse effect”. For the same compound, the “reported effect on Syk activity” value (Syk [4]) was “Syk inhibitors”, the IC50 (TrkA [5]) was no more than 100 nM and the “residual activity of Syk (Gao et al.)” value (Syk [6]) was 38%. The “inhibition of Syk” value (Syk [7]) was “failed to inhibit Syk at significant levels” and the remaining activity at 1 µM (Syk [7]; read-out: residual activity of Syk) was 47%.
In the case of COc1ccc2c(c1)c(/C=C1\C(=O)Nc3ccc(S(N)(=O)=O)cc31)cn2C [Compound 2a22], the “toxic or adverse effect on cells” value [3] is reported as “no toxic or adverse effect”, the “phosphorylation of TrkB” value (TrkB) is reported as “effectively inhibited” and the “phosphorylation of TrkA” value (TrkA [8]) is reported as “effectively inhibited”. The “phosphorylation of downstream kinases Akt and Erk1/2” value (Akt and Erk1/2) was “diminished”.
For COc1ccc2[nH]cc(/C=C3\C(=O)Nc4ccc(S(N)(=O)=O)cc43)c2c1 [Compound 2a23, (Z)-3-((5-methoxy-1H-indol-3-yl)methylene)-2-oxindole-5-sulfonamide], the “kinases whose activity was reduced at least by 50%” value [9] is given as “only one kinase in addition to the Trk kinases”, the “toxic or adverse effect on cells” value [3] is given as “no toxic or adverse effect” and the “reported effect on Syk activity” value (Syk [4]) is given as “Syk inhibitors”. The IC50 (TrkA [5]) was no more than 100 nM and the “inhibition of Syk” value (Syk [7]) was “failed to inhibit Syk at significant levels”.
For COc1ccc2c(c1)c(/C=C1\C(=O)Nc3ccc(S(=O)(=O)N(C)C)cc31)cn2C [Compound 2a25, (Z)-3-((5-methoxy-1-methyl-1H-indol-3-yl)methylene)-N,N-dimethyl-2-oxindole-5-sulfonamide], the “cell viability (cellular ATP content)” value (MG87/TrkB/luc/Elk1 cells) was “no effect”, the “kinases whose activity was reduced at least by 50%” value [9] was “only TrkA” and the “toxic effects in mice” value (In vivo toxicology study) was “no toxic effects”. For the same compound, the “number of viable neurons” value (Rat cortical cells) was “No reduction”, the “toxic or adverse effect on cells” value [3] was “no toxic or adverse effect” and the solubility (Aqueous solubility; aqueous medium (not further specified)) was 3.2 ± 0.1 µg/mL (≈ 7.78 µM). For the same compound, the aqueous solubility (Aqueous solubility) was 7.8 ± 0.2 µM (≈ 3.21 µg/mL), the “phosphorylation of TrkB” value (TrkB) was “effectively inhibited” and the “phosphorylation of TrkA” value (TrkA [8]) was “effectively inhibited”. For the same compound, the “phosphorylation of downstream kinases Akt and Erk1/2” value (Akt and Erk1/2) was “diminished”, the “reported effect on Syk activity” value (Syk [4]) was “not to suppress Syk activity” and the IC50 (TrkA [5]) was no more than 100 nM.
In the case of CN(C)S(=O)(=O)c1ccc2c(c1)/C(=C/c1cn(C)c3ccc(O)cc13)C(=O)N2 [Compound 3a25, (Z)-3-((5-hydroxy-1-methyl-1H-indol-3-yl)methylene)-N,N-dimethyl-2-oxindole-5-sulfonamide], the “kinases whose activity was reduced at least by 50%” value [9] is reported as “only one kinase in addition to the Trk kinases”, the “toxic or adverse effect on cells” value [3] is reported as “no toxic or adverse effect” and the IC50 (TrkA [5]) is reported as no more than 100 nM.
With CNS(=O)(=O)c1ccc2c(c1)/C(=C/c1cn(C)c3ccc(OC)cc13)C(=O)N2 [Compound 4a22, (Z)-3-((5-methoxy-1-methyl-1H-indol-3-yl)methylene)-N-methyl-2-oxindole-5-sulfonamide] the “toxic or adverse effect on cells” value [3] was “no toxic or adverse effect”, the “phosphorylation of TrkB” value (TrkB) was “effectively inhibited” and the “phosphorylation of TrkA” value (TrkA [8]) was “effectively inhibited”. For the same compound, the “phosphorylation of downstream kinases Akt and Erk1/2” value (Akt and Erk1/2) was “diminished”.
